# In US20080145313A1, “Compositions and Methods for the Treatment and Prevention of Neoplastic Disorders” (Genesis Research & Development Corporation Limited, priority 2006, published 2008):
# Experiments:
# wt HCT-116 cells = experiment: Growth inhibition of siRNA-transfected wt HCT-116 cells, SYBR Green I DNA content; format: cell-based
# Description: (§1) A549 cells (human lung cancer cell line; ATCC No. CCL-185), SK-MeI-5 cells (human melanoma cell line; ATCC No. HTB-70), MCF-7 cells (human adenocarcinoma cell line; ATCC No. HTB-22), HCT-116 cells (colorectal carcinoma; ATCC CCL-247) and HCT-116 p53 null cells (derived from ATCC No. CCL-247; Bunz et al., Science 282:1497-1501, 1998) were cultured in RPMI 1640 medium with 10% v/v heat-inactivated fetal calf serum (FCS). Cells were seeded at a density of 5×10^4 cells/cm^2 in multi-well tissue culture plates. Sequences of Stealth™ siRNA duplexes (Invitrogen) targeting human ribonucleotide reductase subunit 1 (SEQ ID NO: 22) and subunit 2 (SEQ ID NO; 38) are given in SEQ ID NO: 4830-4832 (DNA), and SEQ ID NO: 5136-5138 (RNA) for RRM1, and SEQ ID NO: 5306-5308 (DNA), and SEQ ID NO: 5303-5305 (RNA) for RRM2. siRNAs were transfected at different concentrations into cells using Lipofectamine™ RNAiMAX transfection reagent (Invitrogen). Non-specific siRNA (SEQ ID NO: 4804 and 4805 (DNA), and SEQ ID NO: 5301 and 5302 (RNA)) were used as controls. The cellular DNA content was measured using a SYBR Green I-based fluorometric assay at 24, 48, 72 and 96 hours after transfection (120 hours for the MCF-7 cells), as follows. At the indicated time points following reverse transfection, cells were harvested and frozen at −80° C. overnight. Cells were thawed and cell lysis buffer (phosphate-buffered saline (PBS) containing 1% Triton X-100, pH 7) and SYBR Green I (1:10^5 V/V; Invitrogen) was added to the wells and incubated overnight in the dark at 4° C.
# (§2) The following day, cell lysates were mixed thoroughly, and DNA fluorescence was measured with a Wallac Victor^2 plate reader (Turku, Finland) set at an excitation frequency of 485 nm and measuring emission at 535 nm.
# (§3) To determine the effect of the p53-status of cells on RRM1 and RRM2 knockdown, growth inhibition of wild type (wt) HCT-116 and p53 null HCT-116 cells by RRM1 and RRM2-targeted siRNA were determined. Cells were reverse transfected with 1.0 and 10 nM RRM1-3 (SEQ ID NO: 4832 (DNA), and SEQ ID NO: 5138 (RNA)), 1.0 and 10 nM RRM2-2 (SEQ ID NO: 5307 (DNA), and SEQ ID NO: 5304 (RNA)) or 10 nM control siRNA (SEQ ID NO: 4804 (DNA), and SEQ ID NO: 5301 (RNA)), and growth measured daily for up to 4 days post transfection.
# (§4) siRNA-mediated RNAi was also determined on a panel of different cell lines. A549, SK-MeI-5, wt HCT-116, HCT-116−/−p53 and MCF-7 cells were transfected with 10 nM siRNAs targeting YBX-1 and growth inhibition determined as described above. The YBX1 siRNAs are given in SEQ ID NO: 4981 to 4985 (DNA) and SEQ ID NO: 5276-5280 (RNA). A non-specific siRNA (SEQ ID NO: 4804 (DNA) and SEQ ID NO: 5301 (RNA)) was used as control. Growth inhibition by the siRNAs, given in Table 14, was standardized against the inhibition obtained with the control siRNA.
# HCT-116 and A549 cells were transfected with 0.1, 1.0 and 10 nM siRNA targeting TYMS and DHFR (SEQ ID NO: 4833 to 4838 (DNA), and SEQ ID NO: 5139-5144 (RNA)) using Lipofectamine™ RNAiMAX and incubated for 96 h, in either normal fetal calf serum or serum dialyzed to remove low molecular weight molecules (cut-off 10 kDa). Growth of cells was measured by measuring the total DNA content per well using the SYBR Green assay as described above, and values are given as the percentage of the averaged control values. […] Inhibition increased with increasing siRNA concentration, which was not observed with a non-specific control siRNA. […]
# HCT-116 p53 null cells = experiment: Growth inhibition of siRNA-transfected p53 null HCT-116 cells, SYBR Green I DNA content; format: cell-based
# Description: as §1, §2, §3, §4
# A549 cells = experiment: Growth inhibition of siRNA-transfected A549 cells, SYBR Green I DNA content; format: cell-based, human
# Method in brief: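 Growth read-out: cellular DNA quantified with SYBR Green I (485/535 nm) 96 h after transfection, cells frozen, thawed and lysed in PBS/1% Triton X-100, pH 7. Cells (A549, 5×10^3 cells/cm^2) received 10 nM siRNA by RNAiMAX; non-specific siRNA served as control; triplicate wells averaged.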
# [1] = system: target transcript mRNA in A549 cells; experiment: Level of mRNA of target transcript in A549 cells by quantitative RT-PCR (Tables 12 and 13); format: cell-based, human; settings: 24 h post-transfection
# Method in brief: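 Target mRNA was measured by SYBR Green quantitative RT-PCR using random-primed cDNA, normalised to HPRT and Lamin. Samples came from A549 cells 24 h post-transfection with 0.1, 1.0 or 10 nM siRNA.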
# HCT-15 cells = experiment: Effect of MDR1 knockdown on drug resistance of HCT-15 cells; format: cell-based; settings: 10 nM siRNA; drug 72 h; compared with control siRNA
# Description: HCT-15 cells, which express high endogenous levels of MDR1, were reverse transfected with MDR1-specific (SEQ ID NO: 4976 (DNA), and SEQ ID NO: 5271 (RNA)) or control siRNAs (SEQ ID NO: 4804 (DNA), and SEQ ID NO: 5301 (RNA)) at a final concentration of 10 nM. Lipofectamine-siRNA complexes were made by adding 0.3 μl Lipofectamine RNAiMAX in 10 μl RPMI to an equivalent volume of medium containing siRNA, such that the final siRNA concentration would be 10 nM. This mixture was incubated at room temperature for 20 minutes to allow complexes to form, after which time 1,500 HCT-15 cells in 100 μl RPMI supplemented with 10% FCS were added to the wells. […] Drugs used were Doxorubicin (Sigma, St. Louis Mo.), Paclitaxel (Invitrogen) and Etoposide (Sigma, St. Louis Mo.). At the conclusion of the assay, medium was removed and growth inhibition determined as described above.
# SK-Mel-5 cells = experiment: Growth inhibition of siRNA-transfected SK-Mel-5 cells, SYBR Green I DNA content; format: cell-based, human; settings: 1 nM p53 siRNA with 1 nM YBX1 siRNA SEQ ID NO: 4982
# Description: as §1, §2
# siRNA-mediated inhibition of cancer cell growth using siRNA targeting the YBX1 gene (SEQ ID NO: 92) was determined as follows. SK-MeI-5 cells were cultured in RPMI 1640 medium with 10% v/v heat-inactivated fetal calf serum. Cells were cultured as described above and reverse transfected with 0.1, 1.0, 10 and 40 nM (final concentration) of a pool of YBX1-targeting siRNAs (SEQ ID NO: 4982 and 4983 (DNA), and SEQ ID NO: 5277 and 5278 (RNA); referred to as 994 and 995 in FIG. 19) or a non-specific control (SEQ ID NO: 4804 (DNA), and SEQ ID NO: 5301 (RNA); referred to as Stealth 81 ctrl in FIG. 19), and cell growth determined after 120 h by measuring DNA fluorescence with a Wallac Victor^2 plate reader (Turku, Finland) set at an excitation frequency of 485 nm and measuring emission at 535 nm. Growth inhibition by the siRNA pool was standardized against the inhibition obtained with the control siRNAs.
# as §4
# [2] = 1 nM p53 siRNA with 1 nM YBX1 siRNA SEQ ID NO: 4982
substance,measurement,setting,value
"SEQ ID NO: 4832: Stealth siRNA targeting RRM1 (chain 1 ATTCAAAGATGTCTAAATGCCAAGG; chain 2 AUUCAAAGAUGUCUAAAUGCCAAGG; Stealth siRNA, chemical pattern not given here; one strand in two spellings)","growth inhibition, p53 wt HCT-116","wt HCT-116 cells; 1.0 and 10 nM siRNA, up to 4 days, compared with p53 null",equally growth inhibitory
same,"growth inhibition, p53 null HCT-116","HCT-116 p53 null cells; 1.0 and 10 nM siRNA, up to 4 days, compared with p53 wt",equally growth inhibitory
same,Growth Inhibition in A549 cells,"A549 cells; 10 nM siRNA, DNA content 96 hours after transfection",++ (inhibits by at least 75%)
same,"duration of growth inhibition post-transfection, A549","A549 cells; 1 and 10 nM siRNA, measured daily for up to ten days",at least 10 days
SEQ ID NO: 4976: MDR1-specific siRNA (ABCB1) (chain 1 TTAGCTTCCAACCACGTGTAAATCC; chain 2 UUAGCUUCCAACCACGUGUAAAUCC; chemistry not given here; one strand in two spellings),"mRNA knockdown of transporter gene target transcript, 0.1 nM",[1]; 0.1 nM siRNA,− (<50% mRNA knockdown)
same,"mRNA knockdown of transporter gene target transcript, 1 nM",[1]; 1 nM siRNA,− (<50% mRNA knockdown)
same,"sensitivity to doxorubicin, HCT-15",HCT-15 cells,more sensitive
same,"sensitivity to etoposide, HCT-15",HCT-15 cells,more sensitive
same,"sensitivity to paclitaxel, HCT-15",HCT-15 cells,more sensitive
same,Growth Inhibition in A549 cells by 10 nM siRNA,"A549 cells; A549 cells, 10 nM siRNA, DNA content 96 hours after transfection, transporter gene targets",− (no growth inhibition)
"SEQ ID NO: 5110: p53-targeting Stealth siRNA (chain 1 GCCAAGTCTGTGACTTGCACGTACT; chain 2 GCCAAGUCUGUGACUUGCACGUACU; Stealth siRNA, chemical pattern not given here; one strand in two spellings) [reference compound]","effect of p53 siRNA co-transfection on YBX1 siRNA-mediated growth inhibition, wt HCT-116",wt HCT-116 cells; [2],only partial abrogation of growth inhibition
same,"effect of p53 siRNA co-transfection on YBX1 siRNA-mediated growth inhibition, HCT-116−/−p53",HCT-116 p53 null cells; [2],only partial abrogation of growth inhibition
same,"effect of p53 siRNA co-transfection on YBX1 siRNA-mediated growth inhibition, SK-MeI-5",SK-Mel-5 cells,completely ablated growth inhibition
same,"effect of p53 siRNA co-transfection on YBX1 siRNA-mediated growth inhibition, A549",A549 cells; 5 nM p53 siRNA with 5 nM YBX1 siRNA SEQ ID NO: 4982,only partial abrogation of growth inhibition
